Like-named read-outs stand apart in the source and are kept apart here.
Experiments:
Human MTAP = target: T1, Human MTAP (Homo sapiens, UniProt Q13126); assay: 2AMTA continuous fluorescence kinetic assay with hsMTAP; format: biochemical
T1 sequence (Q13126 1-283): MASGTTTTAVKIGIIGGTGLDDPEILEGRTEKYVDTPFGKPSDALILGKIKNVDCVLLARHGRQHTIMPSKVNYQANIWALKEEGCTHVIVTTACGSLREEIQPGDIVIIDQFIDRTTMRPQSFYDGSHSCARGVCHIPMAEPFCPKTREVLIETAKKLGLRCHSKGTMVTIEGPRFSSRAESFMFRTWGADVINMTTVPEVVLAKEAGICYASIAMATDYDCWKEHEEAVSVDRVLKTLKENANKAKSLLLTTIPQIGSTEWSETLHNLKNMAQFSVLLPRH

Helicobacter pylori MTAN = Helicobacter pylori MTAN (Helicobacter pylori, UniProt Q9ZMY2); assay: 2AMTA continuous fluorescence kinetic assay with hpMTAN; format: biochemical
Yersinia pestis MTAN = format: biochemical
[1] = tested on: Streptococcus pneumoniae MTAN; format: biochemical
Vibrio cholerae MTAN = Vibrio cholerae MTAN (Vibrio cholerae serotype O1, UniProt Q9KPI8); format: biochemical; conditions: enzyme concentration 1 μM, substrate concentration 1 mM
hsMTAP [2] = target: T2, hsMTAP (Homo sapiens, UniProt Q13126); assay: MTAP pre-steady-state stopped-flow kinetics; conditions: 10 μM 2AMTA, 5 μM MTAP
T2 sequence (Q13126 1-283): T1 sequence (Q13126 1-283)

hsMTAP [3] = target: T2, hsMTAP; assay: Ki* by 2AMTA fluorescence-based assay, Morrison fit, hsMTAP; format: biochemical; conditions: read-out: Ki∗ measured, 1–3 mM 2AMTA as substrate, slow-onset tight-binding, Morrison equation
hpMTAN [4] = target: T3, hpMTAN (Helicobacter pylori, UniProt Q9ZMY2); assay: Ki* by 2AMTA fluorescence-based assay, Morrison fit, hpMTAN; format: biochemical; conditions: read-out: Ki∗ measured, 1–3 mM 2AMTA as substrate, slow-onset tight-binding, Morrison equation
T3 sequence (Q9ZMY2 1-230): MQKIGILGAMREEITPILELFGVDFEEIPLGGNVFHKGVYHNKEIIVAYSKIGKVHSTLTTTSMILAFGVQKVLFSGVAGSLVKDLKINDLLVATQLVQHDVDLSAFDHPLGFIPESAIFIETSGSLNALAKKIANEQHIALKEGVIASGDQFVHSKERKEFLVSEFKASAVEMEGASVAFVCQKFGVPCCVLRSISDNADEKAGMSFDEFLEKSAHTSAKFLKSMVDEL

hsMTAP [5] = target: T2, hsMTAP; conditions: read-out: Ki∗ literature, ref [21],[22]; cited from earlier work
hpMTAN [6] = target: T3, hpMTAN; conditions: read-out: Ki∗ literature, ref [21],[22]; cited from earlier work
[7] = tested on: Saccharomyces cerevisiae adenine phosphoribosyltransferase (scAPRTase); assay: 2,6-diaminopurine fluorescence assay of scAPRTase; format: biochemical; conditions: 1 mM PRPP
hsMTAP [8] = target: T2, hsMTAP; conditions: substrate MTA, ref [20],[28],[29]; cited from earlier work
hpMTAN [9] = target: T3, hpMTAN; conditions: substrate MTA, ref [20],[28],[29]; cited from earlier work
ecMTAN = conditions: substrate MTA, ref [20],[28],[29]; cited from earlier work
[10] = substrate 2AMTA, 100 mM potassium phosphate pH 7.4

Sequence of Vibrio cholerae MTAN (Q9KPI8 whole entry): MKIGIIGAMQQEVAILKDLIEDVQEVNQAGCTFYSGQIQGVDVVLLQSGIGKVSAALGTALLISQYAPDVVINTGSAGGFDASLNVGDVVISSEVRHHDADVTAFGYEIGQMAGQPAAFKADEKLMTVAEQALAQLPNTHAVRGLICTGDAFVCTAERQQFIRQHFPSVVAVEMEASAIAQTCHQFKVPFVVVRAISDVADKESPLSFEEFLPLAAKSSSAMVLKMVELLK

With 2-amino-5′-methylthioadenosine [2AMTA] the “decrease of catalytic efficiency (kcat/KM) with 2AMTA relative to MTA” value (Human MTAP) was roughly 10 fold, the Km (Human MTAP; [10]) was 34 ± 7 µM and the kcat (Human MTAP; [10]) was 1.7 ± 0.2 s⁻¹. For the same compound, the “decrease of catalytic efficiency (kcat/KM) with 2AMTA relative to MTA” value (Helicobacter pylori MTAN) was roughly 10 fold, the Km (Helicobacter pylori MTAN; [10]) was 3.1 ± 0.5 µM and the kcat (Helicobacter pylori MTAN; [10]) was 7.0 ± 0.4 s⁻¹. For the same compound, the Km (Yersinia pestis MTAN) was 11 ± 4.4 µM, the kcat (Yersinia pestis MTAN; substrate 2AMTA, Yersinia pestis MTAN) was 1.1 ± 0.28 s⁻¹ and the “hydrolysis of 2AMTA” value ([1]; enzyme concentration 1 μM, substrate concentration 1 mM) was “unable to hydrolyze 2AMTA at significant rates”. For the same compound, the kcat ([1]; substrate 2AMTA, Streptococcus pneumoniae MTAN, 1 μM enzyme, 1 mM 2AMTA) was <10^−5 s^−1, the “hydrolysis of 2AMTA” value (Vibrio cholerae MTAN) was “unable to hydrolyze 2AMTA at significant rates” and the “apparent turnover rate (pre-steady-state)” value (hsMTAP [2]) was 270 ± 1 s⁻¹.
In the case of `CSC[C@H]1CN(Cc2c[nH]c3c(N)ncnc23)C[C@@H]1O` [MT-DADMe-ImmA, Methylthio-DADMe-Immucillin-A], the Ki (hsMTAP [3]) is listed as 0.063 ± 0.01 nM, the Ki (hpMTAN [4]) is listed as 0.015 ± 0.0014 nM and the Ki (hsMTAP [5]) is listed as 0.09 ± 0.01 nM. The Ki (hpMTAN [6]) was 0.089 ± 0.019 nM.
In the case of `CSCC1NC(c2c[nH]c3c(N)ncnc23)[C@@H](O)[C@H]1O` (stereo partly drawn) [MT-ImmA, Methylthio-Immucillin-A], the Ki (hsMTAP [3]) is listed as 0.33 ± 0.068 nM, the Ki (hpMTAN [4]) is listed as 0.066 ± 0.011 nM and the Ki (hsMTAP [5]) is listed as 1 ± 0.5 nM. The Ki (hpMTAN [6]) was 0.04 ± 0.02 nM.
With `Nc1nc(N)c2[nH]cnc2n1` [2,6-diaminopurine] the “fold decreased kcat compared to adenine” value [7] was roughly 400 fold, the “fold increased KM compared to adenine” value [7] was “approximately 2 fold” and the “kcat/KM reduced by a factor compared to adenine” value [7] was 800 fold.
In the case of `Nc1ncnc2c(CN3CC(CSc4ccc(Cl)cc4)[C@H](O)C3)c[nH]c12` (stereo partly drawn) [pCl-PhT-DADMe-ImmA, pCl-PhT-DADMe-Immucillin-A], the Ki (hsMTAP [3]) is given as 0.047 ± 0.013 nM, the Ki (hpMTAN [4]) is given as 0.36 ± 0.032 nM and the Ki (hsMTAP [5]) is given as 0.01 ± 0.005 nM. For the same compound, the Ki (hpMTAN [6]) was 0.57 ± 0.09 nM.
In the case of 5′-methylthioadenosine [MTA], the Km (hsMTAP [8]) is given as 5 ± 1 µM, the kcat (hsMTAP [8]) is given as 2.5 ± 0.7 s⁻¹ and the Km (hpMTAN [9]) is given as 0.6 ± 0.3 µM. For the same compound, the kcat (hpMTAN [9]) was 12.1 ± 2.3 s⁻¹, the Km (ecMTAN) was 0.19 ± 0.02 µM and the kcat (ecMTAN) was 2.3 ± 0.1 s⁻¹.

— article PMC5434977 (Analytical chemistry, 2016)
